Results from patent publication US20220233566A1, “NOVEL CARBONATE COMPOUND HAVING PYRROLOPYRIMIDINE SKELETON OR PHARMACEUTICALLY ACCEPTABLE SALT THEREOF” (TAIHO PHARMACEUTICAL CO., LTD., priority 2019, published 2022).

Legend:
Experiment in all cases: Growth suppression activity to human tumor cell line (Evaluation 2)
Assay type in all cases: cell-based
A549 = conditions: A549, 72 h, Human lung cancer, A549, 3 days
Protocol: (§1) Human tumor cell lines different in type were suspended in mediums, seeded in individual wells of a multi-well plate and cultured. On the day after initiation of culture, serially diluted solutions of a compound were added. Culture was carried out for further 3 days. Cells were counted by a CellTiter-Glo (manufactured by Promega KK) in accordance with the protocol recommended by Promega KK. Cell viability was calculated in accordance with the equation shown below and the concentration (IC50 (nM)) of the compound at which 50% of cell growth is inhibited was obtained.
(§2) T: Intensity of light emitted from a well containing a compound
(§3) C: Intensity of light emitted from a well containing no compound

H2122 = conditions: NCI-H2122, 72 h, Human lung cancer, H2122, 3 days
Protocol: as §1, §2, §3

SK-BR-3 = conditions: Human breast cancer, SK-BR-3, 3 days
Protocol: as §1, §2, §3

HCC827 = conditions: Human lung cancer, HCC827, 3 days
Protocol: as §1, §2, §3

- IC50 (A549): 14 nM
- IC50 (H2122): 9 nM
- IC50 (SK-BR-3; Homo sapiens, SK-BR-3, 72 h): 26 nM
- IC50 (SK-BR-3): 23 nM
- IC50 (HCC827; Homo sapiens, HCC827, 72 h): 228 nM
- IC50 (HCC827): 176 nM
Compound: Nc1ncnc2c1c(Br)cn2[C@@H]1O[C@H](CO)[C@@H](O)[C@@H]1F [Comparative Example 1, (2R,3R,4S,5R)-5-(4-amino-5-bromo-7H-pyrrolo[2,3-d]pyrimidin-7-yl)-4-fluoro-2-(hydroxymethyl) tetrahydrofuran-3-ol]
